Values belong to the molecule of their own block, whether it stands above or below them.
Experiments:
TPADO reductase (TphA1) = target: T1, TPADO reductase (TphA1) (Comamonas sp., UniProt Q3C1E0); assay: HPLC of TPADO/reductase reaction; format: biochemical; conditions: electron donor in the coupled system with TPADO and TPA; NADPH not used
T1 construct: gene tphA1I; C-terminal His6, expressed in E. coli; plant-type [2Fe-2S], flavin

[1] = target: T2, terephthalate dioxygenase (TPADO; TphA2/TphA3) (Comamonas sp., UniProt Q3C1D5); assay: HPLC end point, NADH and analog consumption; format: biochemical; conditions: uncoupler, not oxygenated; 90 min in air, limiting NADH, with TphA1 reductase
T2 construct: gene tphA2II; alpha with C-terminal His6, coexpressed with beta from pET-DUET in E. coli; alpha3beta3 heterohexamer, 196 kDa; Rieske [2Fe-2S] and mononuclear Fe(II); with Terephthalate 1,2-dioxygenase, terminal oxygenase component subunit beta

[2] = substrate: O=C(O)c1ccc(C(=O)O)cc1; assay: steady-state kinetics, Michaelis-Menten fit; format: biochemical, Comamonas sp.; conditions: ambient air (O2 not shown saturating), NADH, with TphA1 reductase

T1 sequence (Q3C1E0 whole entry): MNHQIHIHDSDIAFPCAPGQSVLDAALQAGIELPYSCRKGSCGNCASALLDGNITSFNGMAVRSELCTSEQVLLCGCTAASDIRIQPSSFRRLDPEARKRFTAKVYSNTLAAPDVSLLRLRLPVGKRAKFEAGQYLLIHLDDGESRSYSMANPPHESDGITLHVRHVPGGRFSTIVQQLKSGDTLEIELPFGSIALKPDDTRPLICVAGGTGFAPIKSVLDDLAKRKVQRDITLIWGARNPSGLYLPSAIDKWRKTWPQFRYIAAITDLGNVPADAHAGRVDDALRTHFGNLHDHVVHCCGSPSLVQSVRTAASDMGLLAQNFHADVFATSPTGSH
T2 sequence (Q3C1E2 whole entry, one chain of several, further chain): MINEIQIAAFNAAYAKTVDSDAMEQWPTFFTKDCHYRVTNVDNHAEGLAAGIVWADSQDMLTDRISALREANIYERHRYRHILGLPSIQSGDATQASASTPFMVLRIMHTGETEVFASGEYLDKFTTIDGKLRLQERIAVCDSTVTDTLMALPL

Molecule: NC(=O)C1=CN([C@@H]2O[C@H](COP(=O)(O)OP(=O)(O)OC[C@H]3O[C@@H](n4cnc5c(N)ncnc54)[C@H](O)[C@@H]3O)[C@@H](O)[C@H]2O)C=CC1 [NADH]
HPLC of TPADO/reductase reaction (TPADO reductase (TphA1)): specifically in the presence of nicotinamide adenine dinucleotide hydride (NADH) rather than its phosphorylated analog

% NADH consumption [1]: 100%
Molecule: O=C(O)c1ccc([N+](=O)[O-])cc1 [4-NBA, 4-nitrobenzoic acid]

B1: terephthalate dioxygenase (TPADO; TphA2/TphA3) (Comamonas sp.) (protein)
chain: MQESIIQWHGATNTRVPFGIYTDTANADQEQQRIYRGEVWNYLCLESEIPGAGDFRTTFAGETPIVVVRDADQEIYAFENRCAHRGALIALEKSGRTDSFQCVYHAWSYNRQGDLTGVAFEKGVKGQGGMPASFCKEEHGPRKLRVAVFCGLVFGSFSEDVPSIEDYLGPEICERIERVLHKPVEVIGRFTQKLPNNWKLYFENVKDSYHASLLHMFFTTFELNRLSQKGGVIVDESGGHHVSYSMIDRGAKDDSYKDQAIRSDNERYRLKDPSLLEGFEEFEDGVTLQILSVFPGFVLQQIQNSIAVRQLLPKSISSSELNWTYLGYADDSAEQRKVRLKQANLIGPAGFISMEDGAVGGFVQRGIAGAANLDAVIEMGGDHEGSSEGRATETSVRGFWKAYRKHMGQEMQA
notes: alpha with C-terminal His6, coexpressed with beta from pET-DUET in E. coli; alpha3beta3 heterohexamer, 196 kDa; Rieske [2Fe-2S] and mononuclear Fe(II); with Terephthalate 1,2-dioxygenase, terminal oxygenase component subunit beta
Km [2]: 9.6 ± 1 µM | kcat [2]: 0.2 ± 0.005 s⁻¹
